Reference: US7417156B2, “Orally active, antimalarial, anticancer, artemisinin-derived trioxane dimers” (Johns Hopkins University, priority 2002, dated 2008)

Legend:
[1] = test system: CCRF-CEM; experiment: NCI 60 cell line panel screen (SRB); type: cell-based, human; details: for Log10LC50 / Log10TGI50: CCRF-CEM (Leukemia); for Log10LC50: LC50: PG=−50; for Log10TGI50: TGI: PG=0; for Log10GI50: Leukemia, CCRF-CEM
[2] = test system: HL-60(TB); experiment: NCI 60 cell line panel screen (SRB); type: cell-based, human; details: for Log10LC50: LC50: PG=−50; for Log10GI50: Leukemia, HL-60(TB)
[3] = test system: MOLT-4; details: for Log10GI50: Leukemia, MOLT-4; for Log10LC50 / Log10TGI50: MOLT-4 (Leukemia); for Log10LC50: LC50: PG=−50; for Log10TGI50: TGI: PG=0
In short: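 Sulforhodamine B staining of TCA-fixed cellular protein was the read-out, following 48 h compound exposure at 37 °C. Plates were pre-incubated 24 h before dosing, and five concentrations (routinely 10^−4 to 10^−8 molar) were tested in duplicate with time-zero and untreated controls. Values derive from test/control percentage growth relative to time-zero mass.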

[4] = test system: HOP-92; experiment: NCI 60 cell line panel screen (SRB); type: cell-based, human; details: for Log10LC50 / Log10TGI50: HOP-92 (Non-Small Cell Lung Cancer); for Log10LC50: LC50: PG=−50; for Log10TGI50: TGI: PG=0; for Log10GI50: Non-Small Cell Lung Cancer, HOP-92
[5] = test system: NCI-H23; experiment: NCI 60 cell line panel screen (SRB); type: cell-based, human; details: for Log10LC50 / Log10TGI50: NCI-H23 (Non-Small Cell Lung Cancer); for Log10LC50: LC50: PG=−50; for Log10TGI50: TGI: PG=0; for Log10GI50: Non-Small Cell Lung Cancer, NCI-H23
[6] = test system: NCI-H322M; type: cell-based; details: for Log10TGI50: TGI: PG=0; for Log10GI50: Non-Small Cell Lung Cancer, NCI-H322M
[7] = test system: SF-539; experiment: NCI 60 cell line panel screen (SRB); type: cell-based, human; details: for Log10GI50: CNS Cancer, SF-539; for Log10LC50 / Log10TGI50: SF-539 (CNS Cancer); for Log10LC50: LC50: PG=−50; for Log10TGI50: TGI: PG=0
[8] = test system: SNB-19; experiment: NCI 60 cell line panel screen (SRB); type: cell-based, human; details: for Log10GI50: CNS Cancer, SNB-19; for Log10LC50 / Log10TGI50: SNB-19 (CNS Cancer); for Log10LC50: LC50: PG=−50; for Log10TGI50: TGI: PG=0
[9] = test system: U251; experiment: NCI 60 cell line panel screen (SRB); type: cell-based, human; details: for Log10GI50: CNS Cancer, U251; for Log10LC50 / Log10TGI50: U251 (CNS Cancer); for Log10LC50: LC50: PG=−50; for Log10TGI50: TGI: PG=0
[10] = test system: SK-MEL-2; experiment: NCI 60 cell line panel screen (SRB); type: cell-based, human; details: for Log10GI50: Melanoma, SK-MEL-2; for Log10LC50: SK-MEL2 (Melanoma), LC50: PG=−50; for Log10TGI50: SK-MEL-2 (Melanoma), TGI: PG=0
[11] = test system: IGROVI; experiment: NCI 60 cell line panel screen (SRB); type: cell-based, human; details: for Log10LC50 / Log10TGI50: IGROVI (Ovarian Cancer); for Log10LC50: LC50: PG=−50; for Log10TGI50: TGI: PG=0; for Log10GI50: Ovarian Cancer, IGROVI
[12] = test system: OVCAR-5; experiment: NCI 60 cell line panel screen (SRB); type: cell-based, human; details: for Log10LC50 / Log10TGI50: OVCAR-5 (Ovarian Cancer); for Log10LC50: LC50: PG=−50; for Log10TGI50: TGI: PG=0; for Log10GI50: Ovarian Cancer, OVCAR-5
[13] = test system: RXF 393; experiment: NCI 60 cell line panel screen (SRB); type: cell-based, human; details: for Log10LC50 / Log10TGI50: RXF 393 (Renal Cancer); for Log10LC50: LC50: PG=−50; for Log10TGI50: TGI: PG=0; for Log10GI50: Renal Cancer, RXF 393
[14] = test system: TK-10; experiment: NCI 60 cell line panel screen (SRB); type: cell-based, human; details: for Log10GI50: Renal Cancer, TK-10; for Log10LC50 / Log10TGI50: TK-10 (Renal Cancer); for Log10LC50: LC50: PG=−50; for Log10TGI50: TGI: PG=0
[15] = test system: UO-31; experiment: NCI 60 cell line panel screen (SRB); type: cell-based, human; details: for Log10GI50: Renal Cancer, UO-31; for Log10LC50 / Log10TGI50: UO-31 (Renal Cancer); for Log10LC50: LC50: PG=−50; for Log10TGI50: TGI: PG=0
[16] = test system: PC-3; experiment: NCI 60 cell line panel screen (SRB); type: cell-based, human; details: for Log10LC50 / Log10TGI50: PC-3 (Prostate Cancer); for Log10LC50: LC50: PG=−50; for Log10TGI50: TGI: PG=0; for Log10GI50: Prostate Cancer, PC-3
[17] = test system: BT-549; experiment: NCI 60 cell line panel screen (SRB); type: cell-based, human; details: for Log10LC50 / Log10TGI50: BT-549 (Breast Cancer); for Log10LC50: LC50: PG=−50; for Log10TGI50: TGI: PG=0; for Log10GI50: Breast Cancer, BT-549
[18] = NCI-H322M (Non-Small Cell Lung Cancer)

For `CC1CCC2C(C)C(CC(O)(CO)CC3OC4OC5(C)CCC6C(C)CCC(C3C)C46OO5)OC3OC4(C)CCC1C32OO4` (stereo not drawn) [Compound 5, bis-trioxane vicinal diol], the Log10LC50 [1] was >−4.00 log10M, the Log10TGI50 [1] was >−4.00 log10M and the Log10GI50 [1] was −4.71. The Log10LC50 ([2]; HL-60(TB) (Leukemia)) was >−4.00 log10M, the Log10GI50 [2] was <−8.00 and the “concentration for cytotoxicity (percentage growth −50)” value [3] was “greater than 10^−4 M”. For the same compound, the Log10GI50 [3] was <−8.00, the Log10LC50 [3] was >−4.00 log10M and the Log10TGI50 [3] was >−4.00 log10M. It also gave a Log10LC50 [4] of −4.05 log10M, a Log10TGI50 [4] of −4.49 log10M and a Log10GI50 [4] of −4.93. For the same compound, the Log10LC50 [5] was >−4.00 log10M, the Log10TGI50 [5] was −4.26 log10M and the Log10GI50 [5] was −4.83. The Log10LC50 ([6]; NCI-H322M (Non-Small Cell Lung Cancer), LC50: PG=−50) was −4.16 log10M, the Log10TGI50 [6, 18] was −4.44 log10M and the Log10GI50 [6] was −4.71. For the same compound, the Log10GI50 [7] was −4.86, the Log10LC50 [7] was >−4.00 log10M and the Log10TGI50 [7] was −4.41 log10M. The Log10GI50 [8] was −4.82, the Log10LC50 [8] was >−4.00 log10M and the Log10TGI50 [8] was −4.34 log10M. The Log10GI50 [9] was −7.68, the Log10LC50 [9] was −4.08 log10M and the Log10TGI50 [9] was −4.61 log10M. It also gave a Log10GI50 [10] of −4.94, a Log10LC50 [10] of −4.12 log10M and a Log10TGI50 [10] of −4.53 log10M. It also gave a Log10LC50 [11] of −4.17 log10M, a Log10TGI50 [11] of −4.57 log10M and a Log10GI50 [11] of −4.97. The Log10LC50 [12] was >−4.00 log10M, the Log10TGI50 [12] was −4.33 log10M and the Log10GI50 [12] was −4.78. For the same compound, the Log10LC50 [13] was −4.18 log10M, the Log10TGI50 [13] was −4.53 log10M and the Log10GI50 [13] was −4.89. It also gave a Log10GI50 [14] of −4.91, a Log10LC50 [14] of −4.06 log10M and a Log10TGI50 [14] of −4.49 log10M. The Log10GI50 [15] was −7.38, the Log10LC50 [15] was −4.26 log10M and the Log10TGI50 [15] was −4.68 log10M. For the same compound, the Log10LC50 [16] was >−4.00 log10M, the Log10TGI50 [16] was −4.49 log10M and the Log10GI50 [16] was <−8.00. The Log10LC50 [17] was −4.30 log10M, the Log10TGI50 [17] was −4.81 log10M and the Log10GI50 [17] was <−8.00.

In the case of `CC1CCC2C(C)C(CC(COC(=O)CCC(=O)O)CC3OC4OC5(C)CCC6C(C)CCC(C3C)C46OO5)OC3OC4(C)CCC1C32OO4` (stereo not drawn) [Compound 8a, bis-trioxane primary succinate monoester], the Log10LC50 [1] is reported as >−4.30 log10M, the Log10TGI50 [1] is reported as >−4.30 log10M and the Log10GI50 [1] is reported as <−8.30. For the same compound, the Log10LC50 ([2]; HL-60(TB) (Leukemia)) was >−4.30 log10M, the Log10TGI50 ([2]; HL-60(TB) (Leukemia), TGI: PG=0) was −7.61 log10M and the Log10GI50 [2] was <−8.30. For the same compound, the “concentration for cytotoxicity (percentage growth −50)” value [3] was “greater than 10^−4 M”, the Log10GI50 [3] was −8.18 and the Log10LC50 [3] was >−4.30 log10M. The Log10TGI50 [3] was >−4.30 log10M, the Log10LC50 [4] was >−4.30 log10M and the Log10TGI50 [4] was >−4.30 log10M. For the same compound, the Log10GI50 [4] was −6.56, the Log10LC50 [5] was >−4.30 log10M and the Log10TGI50 [5] was >−4.30 log10M. For the same compound, the Log10GI50 [5] was <−8.30, the Log10TGI50 [6, 18] was >−4.30 log10M and the Log10GI50 [6] was −5.11. For the same compound, the Log10GI50 [7] was −5.27, the Log10LC50 [7] was >−4.30 log10M and the Log10TGI50 [7] was >−4.30 log10M. For the same compound, the Log10GI50 [8] was −5.62, the Log10LC50 [8] was >−4.30 log10M and the Log10TGI50 [8] was >−4.30 log10M. The Log10GI50 [9] was −8.20, the Log10LC50 [9] was >−4.30 log10M and the Log10TGI50 [9] was >−4.30 log10M. For the same compound, the Log10GI50 [10] was −5.12, the Log10LC50 [10] was >−4.30 log10M and the Log10TGI50 [10] was >−4.30 log10M. For the same compound, the Log10LC50 [11] was >−4.30 log10M, the Log10TGI50 [11] was >−4.30 log10M and the Log10GI50 [11] was −5.07. For the same compound, the Log10LC50 [12] was >−4.30 log10M, the Log10TGI50 [12] was −6.62 log10M and the Log10GI50 [12] was <−8.30. The Log10LC50 [13] was >−4.30 log10M, the Log10TGI50 [13] was −6.77 log10M and the Log10GI50 [13] was <−8.30. For the same compound, the Log10GI50 [14] was −6.92, the Log10LC50 [14] was >−4.30 log10M and the Log10TGI50 [14] was −4.52 log10M. For the same compound, the Log10GI50 [15] was −5.46, the Log10LC50 [15] was >−4.30 log10M and the Log10TGI50 [15] was >−4.30 log10M. For the same compound, the Log10LC50 [16] was >−4.30 log10M, the Log10TGI50 [16] was >−4.30 log10M and the Log10GI50 [16] was <−8.30. The Log10LC50 [17] was >−4.30 log10M, the Log10TGI50 [17] was −7.39 log10M and the Log10GI50 [17] was −7.91.
